Six compounds from paper PMC10120512, “Benzenesulfonamide derivatives as Vibrio cholerae carbonic anhydrases inhibitors: a computational-aided insight in the structural rigidity-activity relationships” (Journal of Enzyme Inhibition and Medicinal Chemistry, 2023) can be followed below.

pKi: −log10 of the molar value. Bounds are passed on as bounds.

In experiment [1] the target is VchαCA (Vibrio cholerae, UniProt Q9KMP6). Description: biochemical. It is filed as biochemical.
The subject of experiment [2] is VchαCA. The experiment is described as follows: biochemical. The experiment is classed as biochemical. The conditions noted are these: for SI [ KI hCA I/KI VchαCA ]: selectivity index hCA I over VchαCA; for SI [ KI hCA II/KI VchαCA ]: selectivity index hCA II over VchαCA.
Another experiment addresses VchβCA (Vibrio cholerae, UniProt A0A086SLX8). The experiment is described as follows: biochemical.
The test system of experiment [3] is clinical isolates of V. cholerae (SI-Vc22, SI-Vc71, SI-Vc912). The experiment is described as follows: Direct antibacterial activity, agar diffusion method. As to all read-outs here: test concentration or dose not given here. The experiment is classed as cell-based. The conditions noted are these: for growth inhibition against at least one of the clinical isolates: 2 μL spot, 37 °C, 24 h; for inhibition zone diameter: all the isolates, data not shown.

The next experiment addresses VchγCA (Vibrio cholerae, UniProt Q9KVT1). The experiment is described as follows: biochemical.

Chain of VchαCA (Vibrio cholerae, UniProt Q9KMP6) (Q9KMP6 entry or part of it): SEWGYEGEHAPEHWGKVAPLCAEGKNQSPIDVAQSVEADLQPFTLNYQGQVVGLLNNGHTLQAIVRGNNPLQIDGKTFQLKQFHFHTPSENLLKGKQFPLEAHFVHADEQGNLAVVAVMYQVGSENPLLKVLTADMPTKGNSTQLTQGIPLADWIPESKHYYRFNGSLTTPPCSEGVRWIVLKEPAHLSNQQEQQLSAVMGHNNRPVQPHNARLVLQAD
Chain of VchγCA (Q9KVT1 1-184): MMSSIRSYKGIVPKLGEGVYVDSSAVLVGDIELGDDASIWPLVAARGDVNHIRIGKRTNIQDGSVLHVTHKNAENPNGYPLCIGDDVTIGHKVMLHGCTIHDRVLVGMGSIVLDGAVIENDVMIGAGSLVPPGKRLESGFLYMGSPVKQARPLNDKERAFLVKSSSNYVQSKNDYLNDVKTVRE
Chain of VchβCA (A0A086SLX8 entry or part of it): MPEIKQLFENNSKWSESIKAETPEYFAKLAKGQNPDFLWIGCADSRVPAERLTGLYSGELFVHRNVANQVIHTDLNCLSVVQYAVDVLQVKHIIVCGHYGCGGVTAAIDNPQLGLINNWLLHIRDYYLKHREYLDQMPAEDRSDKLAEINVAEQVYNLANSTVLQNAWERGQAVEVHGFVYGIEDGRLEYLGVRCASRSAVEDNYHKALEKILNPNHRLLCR

For the compound `NS(=O)(=O)c1ccc(NC(=O)CNc2ccc(Cl)cc2)cc1` [3b], the pKi on VchαCA [1] was 7.18; on VchβCA, 3.93; on VchγCA, 4.06. Also, the “SI [ KI hCA I/KI VchαCA ]” value in the experiment on VchαCA [2] came to 0.3. In the experiment on VchαCA [2], the “SI [ KI hCA II/KI VchαCA ]” value is 0.1. Besides, the “growth inhibition against at least one of the clinical isolates” value (from here on “growth inhibition against at least one”) in experiment [3] is listed as “moderate growth inhibition”.

Turning to `NS(=O)(=O)c1ccc(N2CCN(c3ccc(I)cc3)C2=O)cc1` [4c], the pKi at VchαCA [1] is 7.89; on VchβCA, 3.94; on VchγCA, 4.14. Also, in the experiment on VchαCA [2], the “SI [ KI hCA I/KI VchαCA ]” value worked out at 7.1. The “SI [ KI hCA II/KI VchαCA ]” value in the experiment with VchαCA [2] came out at 1.0. Also, in experiment [3], the inhibition zone diameter is recorded as 3–5 mm.

For the compound `NS(=O)(=O)c1ccc(N2CCN(c3ccccc3F)C2=O)cc1` [6c], the values for the pKi on VchαCA [1] and on VchγCA were 8.01 and 4.08, respectively. In experiment [3], the inhibition zone diameter was 3–5 mm.

Regarding `CCCCN1CCN(c2ccc(S(N)(=O)=O)cc2)C1=O` [9c], at VchαCA [1], the pKi is 8.33. The “SI, selectivity with respect to human isoenzymes” value in the experiment on VchαCA [2] (VchαCA versus human isoenzymes (abstract)) is given as ≥ 90. Besides, in the experiment on VchαCA [2], the “SI [ KI hCA I/KI VchαCA ]” value worked out at 128.4 and the “SI [ KI hCA II/KI VchαCA ]” value came to 90.0. This compound also had a pKi at VchβCA of 3.95. In experiment [3], the “growth inhibition against at least one” value is reported as “moderate growth inhibition” and the inhibition zone diameter was 3–5 mm. Besides, the pKi at VchγCA is 4.26.

Compound `NS(=O)(=O)c1cccc(NC(=O)CNc2ccccc2)c1` [11b] showed a pKi on VchαCA [1] of 7.23. Also, in the experiment with VchαCA [2], the “SI [ KI hCA I/KI VchαCA ]” value turned out to be 7.5 and the “SI [ KI hCA II/KI VchαCA ]” value is reported as 0.6. The compound further showed a pKi on VchβCA of 3.88. Besides, the “growth inhibition against at least one” value in experiment [3] is “moderate growth inhibition”.

Turning to `NS(=O)(=O)c1cccc(NCCNc2ccc(Cl)cc2)c1` [13a], the pKi on VchαCA [1] was 7.12; on VchβCA, 4.23; at VchγCA, 5.25. In the experiment with VchαCA [2], the “SI [ KI hCA I/KI VchαCA ]” value is listed as 4.6. Also, the “SI [ KI hCA II/KI VchαCA ]” value in the experiment on VchαCA [2] was found to be 0.2. The “growth inhibition against at least one” value in experiment [3] is “moderate growth inhibition”.
